Consider two molecules from patent EP3315028B1, “USE OF INHIBITORS OF NLP PROTEINS AS PHYTOPHARMACEUTICALS FOR PLANT PATHOGEN CONTROL” (Kemijski Institut, priority 2016, dated 2018).

Entries after “also recorded” stand apart in the source; their conditions may differ.

One series has as its system Phytophthora infestans. The class given is in vivo, Phytophthora infestans (strain 88069). The following applies: for growth of the pathogen P. infestans on potato leaves, visual analysis: 1 mM compound in 10 µL drops with 5 × 10^4 mL^-1 zoospores, 4 days, 18 °C, vs control compound (Figure 6A); for amount of pathogen DNA by real-time PCR, control samples vs samples with compound: 1 mM compound, potato leaves 4 days after infection, Student's t-test, *** P <0.001 (Figure 6B).

Another series has as its system tobacco leaves. As to the kind of experiment: Control infiltration of tobacco leaves with compounds alone (necrosis). The conditions noted are these: compound at the final 1 mM concentration, no NLP protein, 5 % DMSO (Figure 4).

Method for tobacco leaves: This biological test may be used to assess the impact of compounds on the functionality of NLPs. The NLP protein solution is injected in the absence or presence of the compounds into tobacco leaves of healthy plants. The plants are then observed for 1-3 days and checked for the presence of necrosis.
Compounds: Compounds were prepared as stock solutions with a concentration of 10 mM in DMSO. Appropriate working solutions were prepared by appropriate dilution of the stock solution. The concentration of DMSO in the test solution was 5 %.
Tobacco plants: Tobacco plants (Nicotiana tabacum White Burley) were cultured in chambers for growing plants under controlled conditions of light, humidity and temperature up to the age of 5-7 weeks.
Protein solution, compound and appropriate volume of ultrapure water were mixed in Eppendorf tubes. The mixture was mixed well and injected in the lower epidermis of tobacco leaves. We have injected 50 µL of solution. The area of injected solution was labelled on tobacco leaves. We used ultrapure water, 5 % DMSO, protein solutions of NLPs at different concentrations and appropriate dilutions of compounds as control solutions. The area on the lower side of the leaf, which was infiltrated with solutions, was photographed immediately after injection, and then after 24, 48 and 72 hours. On the third day the plant leaf was photographed also from the top side.

With `COc1ccc(Nc2ccccc2C(=O)O)cc1` [Compound IIa, 2-[(4-methoxyphenyl)amino]benzoic acid], in the series with Phytophthora infestans, the “growth of the pathogen P. infestans on potato leaves, visual analysis” value is “able to inhibit growth of the pathogen” and the “amount of pathogen DNA by real-time PCR, control samples vs samples with compound” value was “statistically significant amounts of pathogen DNA in control samples”. In the series on tobacco leaves, the “necrosis of tobacco leaves caused by compound solution alone” value is “did not cause necrosis; also recorded: Necrosis was not caused”.

Take `Cc1ccc2occ(C3NC(C(=O)O)CS3)c(=O)c2c1` (stereo not drawn) [Compound I, 2-(6-methyl-4-oxochromen-3-yl)-1,3-thiazolidin-3-ium-4-carboxylate]: in the series on Phytophthora infestans, the “growth of the pathogen P. infestans on potato leaves, visual analysis” value is “able to inhibit growth of the pathogen” and the “amount of pathogen DNA by real-time PCR, control samples vs samples with compound” value is listed as “statistically significant amounts of pathogen DNA in control samples”. Also, in the series with tobacco leaves, the “necrosis of tobacco leaves caused by compound solution alone” value is given as “did not cause necrosis; also recorded: Necrosis was not caused”.
